Source: patent US12467085B2, “High accuracy nanopore-based single molecule sequencing by synthesis with tagged nucleotides” (priority 2019, dated 2025)

biological target: Phi29-type DNA polymerase (Bacillus phage phi29, UniProt P03680); assay: Dissociation constants of nucleotides with polymerase by fluorescence assays; assay type: binding; details: fluorescence assays; natural and unincorporable nucleotides
Source text: Disclosed herein is a determination of a number of enzymatic parameters including substrate binding and dissociation constants (examples in Table 1) under a variety of conditions and with a variety of nucleotide analogs (NTPs, N6Ps, tagged N6Ps, α-thio and α,β-methylene nucleotide polyphosphates). In addition to these compounds, disclosed herein are fluorescent nucleotide analogs and unincorporable (α-thio) nucleotides that were designed and synthesized for the polymerase tests to develop new Nanopore-SBS approaches as described below.

Phi29-type DNA polymerase, sequence (P03680 whole entry): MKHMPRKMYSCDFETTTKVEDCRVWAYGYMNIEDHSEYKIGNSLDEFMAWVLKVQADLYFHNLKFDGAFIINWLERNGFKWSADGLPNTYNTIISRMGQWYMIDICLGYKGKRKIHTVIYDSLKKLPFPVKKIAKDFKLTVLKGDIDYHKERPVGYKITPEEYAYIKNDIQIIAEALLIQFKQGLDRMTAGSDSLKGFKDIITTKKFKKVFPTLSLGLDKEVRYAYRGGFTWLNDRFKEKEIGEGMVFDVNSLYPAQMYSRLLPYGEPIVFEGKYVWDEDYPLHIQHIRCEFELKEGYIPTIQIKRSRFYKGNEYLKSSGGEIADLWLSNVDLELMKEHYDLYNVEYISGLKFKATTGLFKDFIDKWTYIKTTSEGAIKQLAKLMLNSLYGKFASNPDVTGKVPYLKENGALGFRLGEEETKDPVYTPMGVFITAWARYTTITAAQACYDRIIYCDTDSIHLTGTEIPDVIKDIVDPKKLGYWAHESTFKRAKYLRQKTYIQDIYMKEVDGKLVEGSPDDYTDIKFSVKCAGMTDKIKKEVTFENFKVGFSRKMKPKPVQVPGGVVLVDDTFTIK

Molecule	Kd [nM]
Nc1nc2c(ncn2C2CC(O)C(COP(=O)(O)OP(=O)(O)OP(=O)(O)O)O2)c(=O)[nH]1 (stereo not drawn) [dGTP, reference compound]	6
Nc1ccn(C2CC(O)C(COP(=O)(O)OP(=O)(O)OP(=O)(O)O)O2)c(=O)n1 (stereo not drawn) [dCTP, reference compound]	~5
Nc1ccn(C2CC(O)C(COP(O)(=S)OP(=O)(O)OP(=O)(O)O)O2)c(=O)n1 (stereo not drawn) [2′-dCTP-αS (Sp-isomer), 2′-dCTP-αS]	1
Nc1nc2c(ncn2C2CC(O)C(COP(O)(=S)OP(=O)(O)OP(=O)(O)O)O2)c(=O)[nH]1 (stereo not drawn) [2′-dGTP-αS (Rp-isomer), 2′-dGTP-αS]	910
Nc1nc2c(ncn2C2CC(O)C(COP(O)(=S)OP(=O)(O)OP(=O)(O)O)O2)c(=O)[nH]1 (stereo not drawn) [2′-dGTP-αS (Sp-isomer), 2′-dGTP-αS]	6
Nc1ccn(C2CC(O)C(COP(=O)(O)CP(=O)(O)OP(=O)(O)O)O2)c(=O)n1 (stereo not drawn) [dCp-CH2-pp, reference compound]	25000
Nc1ccn(C2CC(O)C(COP(O)(=S)OP(=O)(O)OP(=O)(O)O)O2)c(=O)n1 (stereo not drawn) [2′-dCTP-αS (Rp-isomer), 2′-dCTP-αS]	750

same assay, conditions: fluorescence assays; natural and unincorporable nucleotides; read-out: KD

Molecule	Kd [nM]
αS-dG6P-N3 [αS-dG6P-N3 (Rp-isomer)]	670

same assay, conditions: in words; compared with the other nucleotides

Molecule	binding to the polymerase in the ternary complex
Nc1ccn(C2CC(O)C(COP(=O)(O)CP(=O)(O)OP(=O)(O)O)O2)c(=O)n1 (stereo not drawn) [dCp-CH2-pp, reference compound]	do not bind as tightly
